Like-named read-outs stand apart in the source and are kept apart here.
Tests used:
[1] = target: T1, human RXFP3 (hRXFP3) (Homo sapiens, UniProt Q9NSD7); test: cell-based; set-up: HTS inhibition of forskolin-stimulated cAMP, TR-FRET; % activation relative to R3/I5; details: hRXFP3-CHO; primary screen, single dose; read-out: % activation
T1 sequence (Q9NSD7 1-469): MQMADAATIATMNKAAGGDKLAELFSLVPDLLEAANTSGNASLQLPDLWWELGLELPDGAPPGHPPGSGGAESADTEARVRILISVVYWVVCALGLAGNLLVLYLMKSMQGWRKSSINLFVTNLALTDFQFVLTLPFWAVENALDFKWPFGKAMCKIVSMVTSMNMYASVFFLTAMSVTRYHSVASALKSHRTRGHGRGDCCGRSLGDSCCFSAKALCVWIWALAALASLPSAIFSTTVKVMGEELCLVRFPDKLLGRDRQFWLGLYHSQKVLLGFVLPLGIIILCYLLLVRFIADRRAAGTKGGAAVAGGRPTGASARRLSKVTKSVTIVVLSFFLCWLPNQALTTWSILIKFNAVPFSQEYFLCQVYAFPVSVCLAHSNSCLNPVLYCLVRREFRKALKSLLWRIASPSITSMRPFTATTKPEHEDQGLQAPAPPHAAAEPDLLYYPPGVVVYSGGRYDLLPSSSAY
Method: (§1) The HTS campaign was carried out in white 384-well plates by measuring the inhibition of forskolin-stimulated cAMP accumulation in hRXFP3-CHO cells. Briefly, the positive control (5 nM R3/I5) and negative control (1% DMSO) were located at the 64 wells of the outer four columns on both sides with 32 replicates, respectively. The individual screening compounds were loaded at the center twenty columns with an average final concentration of 10 μM in a single-dose format without replicates. Time-resolved fluorescence resonance energy transfer (TR-FRET) signals were read by an EnVision multilabel plate reader (PerkinElmer). Z’ factor, coefficient of variation (CV) and signal-to-background ratio (S/B) were calculated according to the literature. Positive control was regarded as 100% activation, while negative control represented no activation. Compounds showing greater than 50% activation were considered hits, and secondary screening using the same assay was performed to eliminate false positives. cAMP accumulation assay was performed in hRXFP3-CHO cells at a density of 5 × 10^5 cells/mL. The cells were treated with different concentrations of compounds plus 25 μM forskolin and 500 μM IBMX for 30 min at room temperature (RT). cAMP-d2 conjugate and cryptate conjugate working solutions were then diluted and added to the plates separately. Plates were incubated at RT for 60 min and the fluorescence intensity measured at 620 nm and 665 nm by an EnVision multilabel plate reader. The parental CHO cells were applied to examine off-target effect, while hRXFP4-CHO cells were utilized for selectivity assessment.

[2] = target: T1, human RXFP3 (hRXFP3); test: competition binding with europium-labelled H3 B1-22R on RXFP3 CHO-K1 cells; assay type: cell-based; details: 5 nM Eu-H3 B1-22R, one-site fit Ki, tracer Kd 26 nM; competitive
[3] = target: T1, human RXFP3 (hRXFP3); test: cAMP accumulation TR-FRET in hRXFP3-CHO cells; assay type: cell-based
[4] = target: human RXFP4 (hRXFP4) (Homo sapiens, UniProt Q8TDU9); test: cAMP accumulation TR-FRET in hRXFP4-CHO cells; assay type: cell-based
[5] = target: T1, human RXFP3 (hRXFP3); test: cell-based; set-up: species or system CHO-K1; Europium-labelled H3 B1-22R competition binding on CHO-K1 cells stably expressing RXFP3; details: vs 5 nM Eu-H3 B1-22R
Method: CHO-K1 cells stably transfected with RXFP3 were plated onto pre-coated poly-L-lysine 96-well plates for the binding assay performed using 5 nM europium (Eu)-H3 B1-22R as previously described with triplicate determinations within assay and a minimum of three independent experiments. Data are presented as means ± SEM. pKi values were calculated using one-site fit Ki and a Kd value of 26 nM for H3 B1-22R [47].

[6] = target: T1, human RXFP3 (hRXFP3); test: cell-based; set-up: TR-FRET inhibition of forskolin-stimulated cAMP accumulation, single-dose primary screen, percent of R3/I5 control; details: CHO; primary screen, relative to 5 nM R3/I5; read-out: % activation
Method: as §1, with “The cells were treated with different concentrations of compounds plus 25 μM forskolin and 500 μM IBMX for 30 min at room temperature (RT). cAMP-d2 conjugate and cryptate conjugate working solutions were then diluted and added to the plates separately.” left out, “The parental CHO cells were applied to examine off-target effect, while hRXFP4-CHO cells were utilized for selectivity assessment.” left out

Sequence of human RXFP4 (hRXFP4) (Q8TDU9 whole entry): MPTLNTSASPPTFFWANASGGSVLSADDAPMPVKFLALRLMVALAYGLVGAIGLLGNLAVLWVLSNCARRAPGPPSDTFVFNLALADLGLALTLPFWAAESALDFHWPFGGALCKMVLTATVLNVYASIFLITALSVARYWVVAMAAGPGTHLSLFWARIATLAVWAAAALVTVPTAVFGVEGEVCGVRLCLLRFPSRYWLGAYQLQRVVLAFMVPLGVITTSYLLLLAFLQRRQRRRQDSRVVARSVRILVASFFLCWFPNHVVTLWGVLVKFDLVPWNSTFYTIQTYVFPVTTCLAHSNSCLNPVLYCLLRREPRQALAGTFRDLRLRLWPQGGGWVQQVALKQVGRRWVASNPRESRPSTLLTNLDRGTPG

| activity at 10 µM [1] | Compound | other results |
| --- | --- | --- |
| 50% | C[N+](C)=c1ccc2nc3ccc(N)cc3sc-2c1 [WNN0314-F004] |  |
| 51% | O=c1[nH]c2scc(C3CCCCC3)c2[nH]c1=O [WNN0003-F007] |  |
| 68% | O=C(O)C1CCCN(CCC=C2c3ccccc3CCc3cc(-c4ccccc4)ccc32)C1 (stereo not drawn) [WNN0063-E008] |  |
| 73% | O=C(O)Cn1c(=O)c(=O)[nH]c2c(Br)cc(Br)cc21 [WNN0002-F006] |  |
| 56% | O=C(CCCCN1CCCCC1)c1ccccc1 [WNN0028-D009] |  |
| 57% | Cc1csc2[nH]c(=O)c(=O)n(C)c12 [WNN0004-D007] |  |
| 130% | O=C(O)C1CCN(CCC=C2c3ccccc3CCc3cc(-c4ccccc4)ccc32)CC1 [WNN0063-E009] |  |
| 54% | Nc1ccc2sc3[nH]c(=O)c(=O)[nH]c3c2c1 [WNN0003-B006] |  |
| 51% | CN(C)c1ccc2nc3ccc(=[N+](C)C)cc-3sc2c1 [WNN0314-G003] |  |
|  | CC(C)(CCc1ccc(NS(=O)(=O)c2ccccc2)cc1)NCC(O)COc1ccc(O)c(NS(C)(=O)=O)c1 (racemic) [WNN0109-C011] | pKi [2]: further confirmed the direct binding of WNN0109-C011 and its two enantiomers with RXFP3; EC50 [3]: 2.51 µM; EC50 [4]: 33.9 µM; Ki [5]: 41.7 µM; activity at 10 µM [6]: 85% |
| 53% | O=C1NCCCC1C1=NC(CO)(CO)CO1 (stereo not drawn) [WNN0027-E003] |  |
|  | CC(C)(CCc1ccc(NS(=O)(=O)c2ccccc2)cc1)NC[C@@H](O)COc1ccc(O)c(NS(C)(=O)=O)c1 [R-WNN0109-C011] | pKi [2]: further confirmed the direct binding of WNN0109-C011 and its two enantiomers with RXFP3; Ki [5]: 31.6 µM |
| 78% | CSc1nccc(-c2ccc(Br)s2)n1 [WNN0196-B004] |  |
| 82% | O=c1[nH]c2ccccc2n(C(c2ccccc2)c2ccccc2)c1=O [WNN0119-H005] |  |
|  | CC(C)(CCc1ccc(NS(=O)(=O)c2ccccc2)cc1)NC[C@H](O)COc1ccc(O)c(NS(C)(=O)=O)c1 [S-WNN0109-C011] | pKi [2]: further confirmed the direct binding of WNN0109-C011 and its two enantiomers with RXFP3; Ki [5]: 91.2 µM |
| 54% | Cc1sc2[nH]c(=O)c(=O)[nH]c2c1C [WNN0003-G011] |  |
| 56% | CS/C(=N/C#N)Nc1ccc2c(c1)OCCO2 [WNN0027-G008] |  |
| 65% | O=C(c1ccccc1O)N1CCc2nc3ncccc3cc2C1 [WNN0195-H002] |  |
